Key:
Assay type in all cases: in vivo
[1] = test system: barnyardgrass (Echinochloa crus-galli); assay: Test G Post-Emergence Protocol; conditions: Echinochloa crus-galli, post-emergence, 312 h; for pest or weed control at 15.625 g/ha: 15.625 g ai/ha, evaluated after 13 days (100=total damage to plant; 0=no damage to plant), read-out: Barnyardgrass damage rating; for pest or weed control at 62.5 g/ha: 62.5 g ai/ha, read-out: Barnyardgrass damage rating (100=total damage to plant; 0=no damage to plant); for pest or weed control at 62.5 g/ha / pest or weed control at 250 g/ha: evaluated after 13 days; for pest or weed control at 250 g/ha: 250 g ai/ha, read-out: damage to plant, Barnyardgrass (100=total damage to plant; 0=no damage to plant)
Summary of the method: (§1)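 Values are percent visual injury at 13 days after treatment (0 none, 100 total). Treatment was a post-emergence spray at 15.625, 62.5 or 250 g/ha on 8-day-old pot plants kept at 24/16 °C.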

[2] = test system: ivy-leaved morning glory (Ipomoea hederacea); assay: Test G Post-Emergence Protocol; conditions: Ipomoea, post-emergence, 312 h; for pest or weed control at 15.625 g/ha: 15.625 g ai/ha, evaluated after 13 days (100=total damage to plant; 0=no damage to plant), read-out: Morningglory, Ivy-leaved damage rating; for pest or weed control at 62.5 g/ha: 62.5 g ai/ha, read-out: Morningglory, Ivy-leaved damage rating (100=total damage to plant; 0=no damage to plant); for pest or weed control at 62.5 g/ha / pest or weed control at 250 g/ha: evaluated after 13 days; for pest or weed control at 250 g/ha: 250 g ai/ha, read-out: damage to plant, Morningglory, Ivy-leaved (100=total damage to plant; 0=no damage to plant)
Summary of the method: as §1

[3] = test system: giant foxtail (Setaria faberi); assay: Test G Post-Emergence Protocol; conditions: Setaria faberi, post-emergence, 312 h; for pest or weed control at 15.625 g/ha: 15.625 g ai/ha, evaluated after 13 days (100=total damage to plant; 0=no damage to plant), read-out: Foxtail, Giant damage rating; for pest or weed control at 62.5 g/ha: 62.5 g ai/ha, read-out: Foxtail, Giant damage rating (100=total damage to plant; 0=no damage to plant); for pest or weed control at 62.5 g/ha / pest or weed control at 250 g/ha: evaluated after 13 days; for pest or weed control at 250 g/ha: 250 g ai/ha, read-out: damage to plant, Foxtail, Giant (100=total damage to plant; 0=no damage to plant)
Summary of the method: as §1

[4] = test system: velvetleaf (Abutilon theophrasti); assay: Test G Post-Emergence Protocol; conditions: Abutilon theophrasti, post-emergence, 312 h; for pest or weed control at 15.625 g/ha: 15.625 g ai/ha, evaluated after 13 days (100=total damage to plant; 0=no damage to plant), read-out: Velvetleaf damage rating; for pest or weed control at 62.5 g/ha: 62.5 g ai/ha, read-out: Velvetleaf damage rating (100=total damage to plant; 0=no damage to plant); for pest or weed control at 62.5 g/ha / pest or weed control at 250 g/ha: evaluated after 13 days; for pest or weed control at 250 g/ha: 250 g ai/ha, read-out: damage to plant, Velvetleaf (100=total damage to plant; 0=no damage to plant)
Summary of the method: as §1

corn (Zea mays) [5] = assay: Test G Post-Emergence Protocol; conditions: Zea mays, post-emergence, 312 h; for plant injury at 15.625 g/ha: 15.625 g ai/ha, evaluated after 13 days (100=total damage to plant; 0=no damage to plant), read-out: Corn damage rating; for plant injury at 62.5 g/ha: 62.5 g ai/ha, read-out: Corn damage rating (100=total damage to plant; 0=no damage to plant); for plant injury at 62.5 g/ha / plant injury at 250 g/ha: evaluated after 13 days; for plant injury at 250 g/ha: 250 g ai/ha, read-out: damage to plant, Corn (100=total damage to plant; 0=no damage to plant)
Summary of the method: as §1

[6] = test system: redroot pigweed (Amaranthus retroflexus); assay: Test G Post-Emergence Protocol; conditions: Amaranthus retroflexus, post-emergence, 312 h; for pest or weed control at 15.625 g/ha: 15.625 g ai/ha, evaluated after 13 days (100=total damage to plant; 0=no damage to plant), read-out: Pigweed, Redroot damage rating; for pest or weed control at 62.5 g/ha: 62.5 g ai/ha, read-out: Pigweed, Redroot damage rating (100=total damage to plant; 0=no damage to plant); for pest or weed control at 62.5 g/ha / pest or weed control at 250 g/ha: evaluated after 13 days; for pest or weed control at 250 g/ha: 250 g ai/ha, read-out: damage to plant, Pigweed, Redroot (100=total damage to plant; 0=no damage to plant)
Summary of the method: as §1

[7] = test system: barnyardgrass (Echinochloa crus-galli); assay: Test G Pre-Emergence Protocol; conditions: Echinochloa crus-galli, pre-emergence, 312 h, evaluated after 13 days; for pest or weed control at 15.625 g/ha: 15.625 g ai/ha, read-out: Barnyard grass damage rating (100=total damage to plant; 0=no damage to plant); for pest or weed control at 62.5 g/ha: 62.5 g ai/ha, 100=total damage to plant, 0=no damage to plant, read-out: plant damage rating, Barnyardgrass; for pest or weed control at 250 g/ha: 250 g ai/ha, read-out: Barnyardgrass damage rating (100=total damage to plant; 0=no damage to plant)
Summary of the method: (§2)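 Spraying took place one day after sowing, at 15.625, 62.5 or 250 g/ha, using an acetone/water (50:50) spray solution containing 0.5% Tween 20. Plants were kept under glasshouse conditions (24/16 °C, 14 h light, 65% humidity, watered twice daily), and injury was rated 0–100 at day 13.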

[8] = test system: ivy-leaved morning glory (Ipomoea hederacea); assay: Test G Pre-Emergence Protocol; conditions: Ipomoea, pre-emergence, 312 h, evaluated after 13 days; for pest or weed control at 15.625 g/ha: 15.625 g ai/ha, read-out: Morning-glory, Ivy-leaved damage rating (100=total damage to plant; 0=no damage to plant); for pest or weed control at 62.5 g/ha: 62.5 g ai/ha, 100=total damage to plant, 0=no damage to plant, read-out: plant damage rating, Morningglory, Ivy-leaved; for pest or weed control at 250 g/ha: 250 g ai/ha, read-out: Morningglory, Ivy-leaved damage rating (100=total damage to plant; 0=no damage to plant)
Summary of the method: as §2

[9] = test system: giant foxtail (Setaria faberi); assay: Test G Pre-Emergence Protocol; conditions: Setaria faberi, pre-emergence, 312 h, evaluated after 13 days; for pest or weed control at 15.625 g/ha: 15.625 g ai/ha; for pest or weed control at 15.625 g/ha / pest or weed control at 250 g/ha: read-out: Foxtail, Giant damage rating (100=total damage to plant; 0=no damage to plant); for pest or weed control at 62.5 g/ha: 62.5 g ai/ha, 100=total damage to plant, 0=no damage to plant, read-out: plant damage rating, Foxtail, Giant; for pest or weed control at 250 g/ha: 250 g ai/ha
Summary of the method: as §2

[10] = test system: velvetleaf (Abutilon theophrasti); assay: Test G Pre-Emergence Protocol; conditions: Abutilon theophrasti, pre-emergence, 312 h, evaluated after 13 days; for pest or weed control at 15.625 g/ha: 15.625 g ai/ha; for pest or weed control at 15.625 g/ha / pest or weed control at 250 g/ha: read-out: Velvetleaf damage rating (100=total damage to plant; 0=no damage to plant); for pest or weed control at 62.5 g/ha: 62.5 g ai/ha, 100=total damage to plant, 0=no damage to plant, read-out: plant damage rating, Velvetleaf; for pest or weed control at 250 g/ha: 250 g ai/ha
Summary of the method: as §2

corn (Zea mays) [11] = assay: Test G Pre-Emergence Protocol; conditions: Zea mays, pre-emergence, 312 h, evaluated after 13 days; for plant injury at 15.625 g/ha: 15.625 g ai/ha; for plant injury at 15.625 g/ha / plant injury at 250 g/ha: read-out: Corn damage rating (100=total damage to plant; 0=no damage to plant); for plant injury at 62.5 g/ha: 62.5 g ai/ha, 100=total damage to plant, 0=no damage to plant, read-out: plant damage rating, Corn; for plant injury at 250 g/ha: 250 g ai/ha
Summary of the method: as §2

[12] = test system: redroot pigweed (Amaranthus retroflexus); assay: Test G Pre-Emergence Protocol; conditions: Amaranthus retroflexus, pre-emergence, 312 h, evaluated after 13 days; for pest or weed control at 15.625 g/ha: 15.625 g ai/ha; for pest or weed control at 15.625 g/ha / pest or weed control at 250 g/ha: read-out: Pigweed, Redroot damage rating (100=total damage to plant; 0=no damage to plant); for pest or weed control at 62.5 g/ha: 62.5 g ai/ha, 100=total damage to plant, 0=no damage to plant, read-out: plant damage rating, Pigweed, Redroot; for pest or weed control at 250 g/ha: 250 g ai/ha
Summary of the method: as §2

In the case of `CN1C[C@@H](c2ccc(C(F)(F)F)cc2)[C@H](C(=O)Nc2cn[nH]c2)C1=O` (racemic) [Compound 1646], the pest or weed control at 15.625 g/ha [1] is reported as 0%, the pest or weed control at 62.5 g/ha [1] is reported as 0% and the pest or weed control at 250 g/ha [1] is reported as 0%. For the same compound, the pest or weed control at 15.625 g/ha [2] was 0%, the pest or weed control at 62.5 g/ha [2] was 0% and the pest or weed control at 250 g/ha [2] was 0%. For the same compound, the pest or weed control at 15.625 g/ha [3] was 0%, the pest or weed control at 62.5 g/ha [3] was 10% and the pest or weed control at 250 g/ha [3] was 20%. It also gave a pest or weed control at 15.625 g/ha [4] of 0%, a pest or weed control at 62.5 g/ha [4] of 0% and a pest or weed control at 250 g/ha [4] of 0%. It also gave a plant injury at 15.625 g/ha (corn (Zea mays) [5]) of 0%, a plant injury at 62.5 g/ha (corn (Zea mays) [5]) of 0% and a plant injury at 250 g/ha (corn (Zea mays) [5]) of 0%. It also gave a pest or weed control at 15.625 g/ha [6] of 0%, a pest or weed control at 62.5 g/ha [6] of 0% and a pest or weed control at 250 g/ha [6] of 0%. It also gave a pest or weed control at 15.625 g/ha [7] of 0%, a pest or weed control at 62.5 g/ha [7] of 0% and a pest or weed control at 250 g/ha [7] of 0%. For the same compound, the pest or weed control at 15.625 g/ha [8] was 0%, the pest or weed control at 62.5 g/ha [8] was 0% and the pest or weed control at 250 g/ha [8] was 0%. It also gave a pest or weed control at 15.625 g/ha [9] of 0%, a pest or weed control at 62.5 g/ha [9] of 0% and a pest or weed control at 250 g/ha [9] of 0%. The pest or weed control at 15.625 g/ha [10] was 0%, the pest or weed control at 62.5 g/ha [10] was 0% and the pest or weed control at 250 g/ha [10] was 0%. It also gave a plant injury at 15.625 g/ha (corn (Zea mays) [11]) of 0%, a plant injury at 62.5 g/ha (corn (Zea mays) [11]) of 0% and a plant injury at 250 g/ha (corn (Zea mays) [11]) of 0%. For the same compound, the pest or weed control at 15.625 g/ha [12] was 0%, the pest or weed control at 62.5 g/ha [12] was 0% and the pest or weed control at 250 g/ha [12] was 0%.

`Cc1c(NC(=O)[C@H]2C(=O)N(C)C[C@@H]2c2ccc(C(F)(F)F)cc2)cccc1C(F)(F)F` (racemic) [Compound 1424] gave a pest or weed control at 15.625 g/ha [1] of 0%, a pest or weed control at 62.5 g/ha [1] of 0% and a pest or weed control at 250 g/ha [1] of 10%. It also gave a pest or weed control at 15.625 g/ha [2] of 0%, a pest or weed control at 62.5 g/ha [2] of 0% and a pest or weed control at 250 g/ha [2] of 0%. For the same compound, the pest or weed control at 15.625 g/ha [3] was 0%, the pest or weed control at 62.5 g/ha [3] was 0% and the pest or weed control at 250 g/ha [3] was 20%. The pest or weed control at 15.625 g/ha [4] was 0%, the pest or weed control at 62.5 g/ha [4] was 0% and the pest or weed control at 250 g/ha [4] was 0%. For the same compound, the plant injury at 15.625 g/ha (corn (Zea mays) [5]) was 0%, the plant injury at 62.5 g/ha (corn (Zea mays) [5]) was 0% and the plant injury at 250 g/ha (corn (Zea mays) [5]) was 10%. It also gave a pest or weed control at 15.625 g/ha [6] of 10%, a pest or weed control at 62.5 g/ha [6] of 20% and a pest or weed control at 250 g/ha [6] of 20%. For the same compound, the pest or weed control at 15.625 g/ha [7] was 0%, the pest or weed control at 62.5 g/ha [7] was 10% and the pest or weed control at 250 g/ha [7] was 50%. The pest or weed control at 15.625 g/ha [8] was 0%, the pest or weed control at 62.5 g/ha [8] was 0% and the pest or weed control at 250 g/ha [8] was 0%. For the same compound, the pest or weed control at 15.625 g/ha [9] was 0%, the pest or weed control at 62.5 g/ha [9] was 40% and the pest or weed control at 250 g/ha [9] was 70%. The pest or weed control at 15.625 g/ha [10] was 0%, the pest or weed control at 62.5 g/ha [10] was 0% and the pest or weed control at 250 g/ha [10] was 0%. The plant injury at 15.625 g/ha (corn (Zea mays) [11]) was 0%, the plant injury at 62.5 g/ha (corn (Zea mays) [11]) was 0% and the plant injury at 250 g/ha (corn (Zea mays) [11]) was 0%. It also gave a pest or weed control at 15.625 g/ha [12] of 0%, a pest or weed control at 62.5 g/ha [12] of 0% and a pest or weed control at 250 g/ha [12] of 0%.
